Laboratory results reported in patent US5596008A, “3,4-Diaryl substituted pyridines for the treatment of inflammation” (G. D. Searle & Co., priority 1995, dated 1997).
Read-outs that look alike come from different tables or passages of the source.

Tests used:
COX-1 murine = target: T1, COX-1 murine (Mus musculus, UniProt P22437); test: COX-1 activity in vitro (recombinant enzyme, PGE2 ELISA); assay type: biochemical; conditions: arachidonic acid 10 μM, pH 8.0, pre-incubation 10-20 min, read-out: COX-1 murine ID50
T1 construct: A 2.0 kb fragment containing the coding region of either human or murine COX-1; made in house; host or cells: SF9 insect cells (recombinant baculovirus, vector pVL1393)
T1 sequence (P22437 27-602): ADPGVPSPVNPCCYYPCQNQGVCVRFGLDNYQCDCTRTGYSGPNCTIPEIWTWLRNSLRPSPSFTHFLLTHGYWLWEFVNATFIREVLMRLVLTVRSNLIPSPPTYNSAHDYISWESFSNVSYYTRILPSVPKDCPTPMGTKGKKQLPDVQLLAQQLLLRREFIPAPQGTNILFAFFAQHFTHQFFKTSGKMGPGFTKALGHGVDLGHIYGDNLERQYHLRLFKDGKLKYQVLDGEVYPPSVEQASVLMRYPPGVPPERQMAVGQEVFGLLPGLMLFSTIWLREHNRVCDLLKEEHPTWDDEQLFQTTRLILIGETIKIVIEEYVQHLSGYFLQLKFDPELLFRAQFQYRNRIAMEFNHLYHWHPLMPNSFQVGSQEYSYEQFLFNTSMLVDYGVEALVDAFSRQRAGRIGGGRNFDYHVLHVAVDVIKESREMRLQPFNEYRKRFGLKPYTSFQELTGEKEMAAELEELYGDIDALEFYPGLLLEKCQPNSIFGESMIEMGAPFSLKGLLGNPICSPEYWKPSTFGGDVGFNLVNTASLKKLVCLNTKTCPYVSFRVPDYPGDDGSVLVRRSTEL
Experimental: (§1) Evaluation of COX-1 and COX-2 activity in vitro
(§2) The COX-2 inhibition activity of the compounds of this invention illustrated in the Examples was determined by the following methods.
(§3) a. Preparation of recombinant COX baculoviruses
(§4) Recombinant COX-1 and COX-2 were prepared as described by Gierse et al, [J. Biochem., 305, 479-84 (1995)]. A 2.0 kb fragment containing the coding region of either human or murine COX-1 or human or murine COX-2 was cloned into a BamH1 site of the baculovirus transfer vector pVL1393 (Invitrogen) to generate the baculovirus transfer vectors for COX-1 and COX-2 in a manner similar to the method of D. R. O'Reilly et al (Baculovirus Expression Vectors: A Laboratory Manual (1992)). Recombinant baculoviruses were isolated by transfecting 4 μg of baculovirus transfer vector DNA into SF9 insect cells (2×10^8) along with 200 ng of linearized baculovirus plasmid DNA by the calcium phosphate method. See M. D. Summers and G. E. Smith, A Manual of Methods for Baculovirus Vectors and Insect Cell Culture Procedures, Texas Agric. Exp. Station Bull. 1555 (1987). Recombinant viruses were purified by three rounds of plaque purification and high titer (10^7 -10^8 pfu/ml) stocks of virus were prepared. For large scale production, SF9 insect cells were infected in 10 liter fermentors (0.5×10^6 /ml) with the recombinant baculovirus stock such that the multiplicity of infection was 0.1. After 72 hours the cells were centrifuged and the cell pellet homogenized in Tris/Sucrose (50 mM: 25%, pH 8.0) containing 1% 3-[(3-cholamidopropyl)dimethylammonio]-1-propanesulfonate (CHAPS). The homogenate was centrifuged at 10,000×G for 30 minutes, and the resultant supernatant was stored at -80° C. before being assayed for COX activity.
(§5) b. Assay for COX-1 and COX-2 activity:
(§6) COX activity was assayed as PGE2 formed/μg protein/time using an ELISA to detect the prostaglandin released. CHAPS-solubilized insect cell membranes containing the appropriate COX enzyme were incubated in a potassium phosphate buffer (50 mM, pH 8.0) containing epinephrine, phenol, and heme with the addition of arachidonic acid (10 μM). Compounds were pre-incubated with the enzyme for 10-20 minutes prior to the addition of arachidonic acid. Any reaction between the arachidonic acid and the enzyme was stopped after ten minutes at 37° C./room temperature by transferring 40 μl of reaction mix into 160 μl ELISA buffer and 25 μM indomethacin. The PGE2 formed was measured by standard ELISA technology (Cayman Chemical).

COX-2 murine = target: T2, COX-2 murine (Mus musculus, UniProt Q05769); test: COX-2 activity in vitro (recombinant enzyme, PGE2 ELISA); assay type: biochemical
T2 construct: human or murine COX-2 was cloned into a BamH1 site of the baculovirus transfer vector pVL1393; made in house; host or cells: SF9 insect cells (recombinant baculovirus, vector pVL1393)
T2 sequence (Q05769 18-604): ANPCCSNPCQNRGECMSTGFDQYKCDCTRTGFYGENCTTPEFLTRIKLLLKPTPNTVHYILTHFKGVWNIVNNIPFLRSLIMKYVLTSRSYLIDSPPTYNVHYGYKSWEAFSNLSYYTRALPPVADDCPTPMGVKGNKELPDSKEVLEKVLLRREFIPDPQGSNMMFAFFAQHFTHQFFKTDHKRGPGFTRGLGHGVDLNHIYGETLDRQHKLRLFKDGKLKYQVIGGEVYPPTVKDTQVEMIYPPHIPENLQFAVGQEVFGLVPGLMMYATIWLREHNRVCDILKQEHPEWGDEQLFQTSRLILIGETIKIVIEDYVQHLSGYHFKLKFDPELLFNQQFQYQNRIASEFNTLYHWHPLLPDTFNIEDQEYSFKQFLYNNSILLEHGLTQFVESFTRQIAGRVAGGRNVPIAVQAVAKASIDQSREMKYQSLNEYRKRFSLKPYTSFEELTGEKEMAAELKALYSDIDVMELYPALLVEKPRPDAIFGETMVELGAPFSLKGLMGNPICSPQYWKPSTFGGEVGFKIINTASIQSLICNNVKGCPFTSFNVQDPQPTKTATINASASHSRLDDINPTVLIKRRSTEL
Experimental: as §1, §2, §3, §4, §5, §6

[1] = COX-2 murine, arachidonic acid 10 μM, pH 8.0, pre-incubation 10-20 min, read-out: COX-2 murine ID50

| IC50 (COX-1 murine) | IC50 (COX-2 murine; [1]) | SMILES | IC50 (COX-2 murine) |
| --- | --- | --- | --- |
| 300 nM | > 30000 nM | COc1cc(-c2ccc(S(C)(=O)=O)cc2)c(-c2ccc(F)cc2)c(C(F)(F)F)n1 [Example 1, 5-(4-Fluorophenyl)-2-methoxy-4-[4-(methylsulfonyl)phenyl]-6-(trifluoromethyl)pyridine] | – |
| 300 nM | > 30000 nM | CCOc1cc(-c2ccc(S(C)(=O)=O)cc2)c(-c2ccc(F)cc2)c(C(F)(F)F)n1 [Example 2, 2-Ethoxy-5-(4-fluorophenyl)-4-[4-(methylsulfonyl)phenyl]-6-(trifluoromethyl)pyridine] | – |
| 600 nM | > 100000 nM | CS(=O)(=O)c1ccc(-c2cc(Br)nc(C(F)(F)F)c2-c2ccc(F)cc2)cc1 [Example 4, 2-Bromo-5-(4-fluorophenyl)-4-[4-(methylsulfonyl)phenyl]-6-(trifluoromethyl)pyridine] | – |

| SMILES | IC50 (COX-1 murine) | IC50 (COX-2 murine; [1]) | IC50 (COX-2 murine) |
| --- | --- | --- | --- |
| C#CCOc1cc(-c2ccc(S(C)(=O)=O)cc2)c(-c2ccc(F)cc2)c(C(F)(F)F)n1 [Example 3, 5-(4-Fluorophenyl)-4-[4-(methylsulfonyl)phenyl]-2-(2-propynyloxy)-6-(trifluoromethyl)pyridine] | 200 nM | – | > 30000 nM |
